Key:
[1] = test system: A549; test: Proliferation of somatic cancer cells (cell-titre luminescence), A549; assay type: cell-based; conditions: Lung (NSCLC) A549, 72 hrs
Method in brief: (§1)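 24 hrs attachment (37° C., 5% CO2, ATCC media) → compound 30/3/0.3/0.03 μM, 72 hrs → cell-titre luminescence reagent 30 mins. Signal vs control; IC50 by linear regression on semi-log % control vs concentration.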

[2] = test system: D54-resistant; test: Cell viability (SRB or MTT), TMZ-resistant D54 subclone; assay type: cell-based; conditions: 72 h, 72 hours post treatment
Protocol: (§2) The anti-proliferative activity of compound 2 was also assessed in matched TMZ susceptible (D54-S and U87-S) or resistant (D54-R and […]) cell lines (Hong Kong University, Dr Gilberto Leung). […] SRB tended to overestimate cytotoxicity compared to MTT.

[3] = test system: OCSC-2 cells; test: OCSC-2 proliferation after removal of drug pressure (Incucyte confluence); assay type: cell-based, human; conditions: pre-treated 24 hrs with 0.1, 1 and 10 μg/ml, washed, additional 48 hrs in medium without drug
Protocol: Given the concept that residual cancer progenitor cells within the tumour post-treatment are responsible for tumour relapse, a critical therapeutic strategy to prolong survival is to eradicate those tumour progenitor cells driving relapse. In vitro studies were conducted to determine whether compound 2 was able to inhibit OCSC proliferation once drug pressure was removed. […] Culture plates were immediately placed in the Incucyte system and imaged every 2 hrs. Growth curves were calculated as a measure of cell confluence using an integrated confluence algorithm as a surrogate for cell number to determine proliferation rate.

[4] = test system: MDA-MB-231; test: Proliferation of somatic cancer cells (cell-titre luminescence), MDA-MB-231; assay type: cell-based; conditions: Breast MDA-MB-231, 72 hrs
Method in brief: as §1

[5] = test system: SK-Mel-28; test: Proliferation of somatic cancer cells (cell-titre luminescence), SK-Mel-28; assay type: cell-based; conditions: Homo sapiens; Melanoma SK-Mel-28, 72 hrs
Method in brief: as §1

[6] = test system: MiaPaCa-2; test: Proliferation of somatic cancer cells (cell-titre luminescence), MiaPaCa-2; assay type: cell-based; conditions: Homo sapiens, MIA PaCa-2; Pancreatic MiaPaCa-2, 72 hrs
Protocol: (§3) The ability of selected compounds to inhibit the proliferation of cancer cells representative of melanoma, non-small cell lung cancer, colorectal cancer, breast cancer (Estogen Receptor negative (ER−ve, TNBC−R−ve, Progesterone Receptor negative and negative for EGFR amplification), prostate cancer, liver cancer, ovarian cancer, pancreatic cancer and brain cancer was studied. A pre-determined number of cells as calculated from cell growth assays for each of the cell lines employed were seeded into their respective culture mediums (using ATCC culture parameters—http://wwvv.atcc.org) and cultured for 24 hrs at 37° C. and 5% CO2 in 96-well culture plates. Once attached, each cell line was then exposed to various concentrations of each respective analogue (30, 3, 0.3 and 0.03 μM), cultured for a further 72 hrs and exposed to cell-titre luminescent reagent (100μ/well) for a further 30 mins). Luminescence was captured using an EnVision multilabel reader and the data for each analogue concentration compared against control. Semi-log plots of Percent of Control versus concentration were prepared and IC50 determined using linear regression analysis. In Table 6, compounds Comp 1, Comp 2 and Comp 3 are comparative compounds having the following structures: […]

[7] = test system: OVCAR-3; test: Proliferation of somatic cancer cells (cell-titre luminescence), OVCAR-3; assay type: cell-based; conditions: Homo sapiens; Ovarian OVCAR-3, 72 hrs
Protocol: (§4) The ability of selected compounds to inhibit the proliferation of cancer cells representative of melanoma, non-small cell lung cancer, colorectal cancer, breast cancer (Estogen Receptor negative (ER−ve, TNBC−R−ve, Progesterone Receptor negative and negative for EGFR amplification), prostate cancer, liver cancer, ovarian cancer, pancreatic cancer and brain cancer was studied. A pre-determined number of cells as calculated from cell growth assays for each of the cell lines employed were seeded into their respective culture mediums (using ATCC culture parameters—http://wwvv.atcc.org) and cultured for 24 hrs at 37° C. and 5% CO2 in 96-well culture plates. Once attached, each cell line was then exposed to various concentrations of each respective analogue (30, 3, 0.3 and 0.03 μM), cultured for a further 72 hrs and exposed to cell-titre luminescent reagent (100μ/well) for a further 30 mins). Luminescence was captured using an EnVision multilabel reader and the data for each analogue concentration compared against control. Semi-log plots of Percent of Control versus concentration were prepared and IC50 determined using linear regression analysis. In Table 6, compounds Comp 1, Comp 2 and Comp 3 are comparative compounds having the following structures:
(§5) Using the same methodology the racemate of compound 2 and its enantiomers were assessed against the A172 glioblastoma and OVCAR-3 ovarian cancer cell lines.

[8] = test system: GFP-labeled OCSC2; test: Co-culture fluorescence microscopy, GFP-labeled OCSC2 stem cells; assay type: cell-based, human; conditions: 1 μg/ml for 48 hrs, recovery 72 hrs
Protocol: GFP-labeled OCSC2 and mCherry-labeled OCC2 cells were established by infecting cells with lentivirus expressing the fluorescent proteins (Craveiro et al. 2013). Co-cultures of GFP+ OCSC2 and mCherry+ OCC2 were treated with 1 μg/ml of compound 2 for 48 hrs and allowed to recover for another 72 hrs. Fluorescence was determined by fluorescence microscopy.

[9] = test system: DU145; test: Proliferation of somatic cancer cells (cell-titre luminescence), DU145; assay type: cell-based; conditions: Prostate DU145, 72 hrs
Method in brief: as §1

[10] = test system: A172; test: Proliferation of somatic cancer cells (cell-titre luminescence), A172; assay type: cell-based; conditions: Homo sapiens, A 172; Brain A172, 72 hrs
Protocol: as §4, §5

[11] = test system: TMZ-resistant and sensitive subclones of U87 and D54; test: Anti-proliferative activity across matched TMZ susceptible and resistant GBM cell lines; assay type: cell-based
Protocol: as §2

[12] = test system: PC3; test: Proliferation of somatic cancer cells (cell-titre luminescence), PC3; assay type: cell-based; conditions: Prostate PC3, 72 hrs
Method in brief: as §1

[13] = test system: Ovarian cancer stem cell spheroids (OCSC-2); test: Ovarian cancer stem cell spheroid integrity (microscopy); assay type: cell-based, human; conditions: 24 hrs exposure
Protocol: FIG. 9: Compound 2 destroys ovarian cancer stem cell spheroids. OCSC-2 spheroids were established using standard methodology and exposed to increasing concentration of compound 2 over 24 hrs. A, Control; B. 0.1 μg/ml-24 hr; C, 1 μg/ml-24 hr Spheroid structure was assessed by microscopy.
Ovarian cancer stem cell spheroids were obtained from cultures grown under special conditions that selected for cells with self-renewing potential (Alvero et al., 2009). Briefly, CD44+ cells were incubated in a suspension system consisting of a glass tube in continuous rotation to prevent adherence These cells formed clusters in 48 hrs and compact spheroids in 4 days. Spheroids were then exposed to 0.1 and 1 μg/ml of compound 2 and examined microscopically after 24 hrs.

[14] = test system: SK-OV-3; test: Proliferation of somatic cancer cells (cell-titre luminescence), SK-OV-3; assay type: cell-based; conditions: Homo sapiens; Ovarian SK-OV-3, 72 hrs
Protocol: as §3

[15] = test system: A2780; test: Proliferation of somatic cancer cells (cell-titre luminescence), A2780; assay type: cell-based; conditions: Homo sapiens; Ovarian A2780, 72 hrs
Protocol: as §3

Work on `COc1cc(C2COc3c(ccc(O)c3C)C2c2ccc(O)cc2)cc(OC)c1O` (racemic) [Compound 2, 3-(4-Hydroxy-3,5-dimethoxyphenyl)-4-(4-hydroxyphenyl)-8-methylchroman-7-ol] yielded an IC50 [1] of 40 nM, an IC50 ([1]; listed as compound 2) of under 1000 nM and an IC50 ([2]; MTT) of 215 nM. For the same molecule, the IC50 ([2]; SRB) was 92 nM, the “growth after drug removal” value [3] was “failed to enter logarithmic growth” and the IC50 [4] was 800 nM. It also gave an IC50 ([4]; Homo sapiens, MDA-MB-231, 72 h) of under 1000 nM, an IC50 [5] of 1400 nM and an IC50 [6] of 50 nM. The IC50 [7] was 63 nM, the “GFP-labeled OCSC2 stem cell numbers” value [8] was “markedly reduced” and the IC50 [9] was 80 nM. For the same molecule, the IC50 ([9]; listed as compound 2) was under 1000 nM, the IC50 [10] was 127 nM and the “anti-proliferative activity against TMZ-resistant versus TMZ-sensitive subclones” value ([11]; U87 and D54) was “equipotent”. For the same molecule, the IC50 ([11]; U87 and D54, TMZ-resistant and sensitive subclones, SRB/MTT, read-out: IC50 values regardless of cell line and TMZ status) was under 360 nM, the IC50 ([12]; Homo sapiens, PC-3, 72 h) was 1490 nM and the spheroid infrastructure ([13]; 0.1 μg/ml) was “had started to disintegrate”. The spheroid structure ([13]; 1 μg/ml) was “almost totally destroyed”, the IC50 [14] was 106 nM and the IC50 [15] was 60 nM.
`COc1cc(C2COc3cc(O)ccc3C2c2ccc(O)c(F)c2)cc(OC)c1O` (racemic) [Compound 6, 4-(3-Fluoro-4-hydroxyphenyl)-3-(4-hydroxy-3,5-dimethoxyphenyl)chroman-7-ol] gave an IC50 ([1]; Homo sapiens, A549, 72 h) of under 1000 nM, an IC50 [1] of 700 nM and an IC50 [4] of 1700 nM. The IC50 ([4]; Homo sapiens, MDA-MB-231, 72 h) was under 2000 nM, the IC50 [5] was over 30000 nM and the IC50 [7] was 63 nM. It also gave an IC50 ([9]; Homo sapiens, DU-145, 72 h) of under 1000 nM, an IC50 [9] of 800 nM and an IC50 [10] of 193 nM. The IC50 ([12]; Homo sapiens, PC-3, 72 h) was under 1000 nM, the IC50 [12] was 500 nM and the IC50 [14] was 193 nM.
In the case of `COc1cc(C2COc3c(ccc(O)c3C)C2c2ccc(O)c(F)c2)cc(OC)c1O` (racemic) [Compound 9, 4-(3-Fluoro-4-hydroxyphenyl)-3-(4-hydroxy-3,5-dimethoxyphenyl)-8-methylchroman-7-ol], the IC50 [5] is reported as 2700 nM, the IC50 [6] is reported as 60 nM and the IC50 [7] is reported as 58 nM. It also gave an IC50 [10] of 160 nM, an IC50 [14] of 142 nM and an IC50 [15] of 90 nM.

Source: US9701655B2, “Functionalised benzopyran compounds and use thereof” (NOVOGEN LIMITED, priority 2014, dated 2017)
